Where two headings read alike, the source gives them in different places.
What was measured:
TNF-alpha mRNA = TNF-alpha mRNA expression in LPS stimulated PBMC (qRT-PCR); format: cell-based, human; conditions: LPS stimulated PBMC from PAV/PAV subjects, transient
Description: (§1) Figure 5 In bacterial LPS stimulated PBMC, AITC triggers MAPK activation and TNF-α inhibition in dependence of the TAS2R38 genotype. PBMC were exposed to AITC or 0.01% DMSO (SC) together with 100 pg/mL LPS. (A) Representative immunoblots are given. Densitometric analysis was done to quantify the immunoblots using Quantity One software (Bio-Rad, Munich, Germany) and normalized against β-actin, which was used as loading control. (B, C) Cytokine secretion at 3 and 24 h was analyzed using ELISA kits. (D) Time kinetic of TNF-α mRNA expression. Results are means + SD and given as fold of the solvent control. Results were calculated relative to the corresponding solvent control (SC, 0.01% DMSO). Significance of difference was determined compared to the respective SC by one-way ANOVA, *p < 0.05, **p < 0.01.

[1] = system: TNF-α, IL-1β, IL-2, IL-6, IL17-A, IL-10; assay: Cytokine secretion of CD3/CD28 mAbs stimulated PBMC (MACSplex / ELISA); format: cell-based, human
Description: (§2) PBMC (1x10^6/mL) cultured in RPMI 1640 medium supplemented with 10% heat-inactivated fetal calf serum, 2 mM L-glutamine, 100 U/ml penicillin/streptomycin were stimulated with 0.5 ng/ml CD3/CD28 MAbs and exposed to the test compounds. After 24 h, supernatants were collected and stored at -80°C until analysis using the human MACSplex cytokine 12-kit (Miltenyi Biotec GmbH, Bergisch Gladbach, Germany) according to manufacturer’s protocol to quantify cytokine secretion. Supernatants were also used for photometric quantification by the human TNF-alpha or IL-1β ELISA Ready-Set-Go kit from eBIoscience (Frankfurt, Germany) according to the manufacturer’s instructions.
Figure 6 In […] PBMC, AITC triggers MAPK activation as well as TNF-α release in dependence of the TAS2R38 genotype. PBMC were exposed to AITC or 0.01% DMSO (SC) together with 0.5 ng/mL CD3/CD28 MAbs for 24h (A, B). Cytokine secretion was analyzed using the human MACSplex cytokine 12-kit or ELISA kits. Results are mean values + SD and given as fold of the solvent control. Significance of difference was determined compared to the respective SC as determined by one-way ANOVA, *p < 0.05, **p < 0.01.

TAS2R38-PAV receptor = system: TAS2R38-PAV receptor; set-up: method as in PMID 20022913; conditions: cited from earlier work
NO production = assay: Nitric oxide detection by flow cytometry (DAF-FM) in PBMC; format: cell-based, human; conditions: for NO production increase: monocytes, 5h
Description: PBMC (0.25x10^6) were suspended in DMEM medium and exposed to solvent control, AITC or 100 µM of the NO-donor SNAP (positive control) in 96-well plates for 30-270 min in a humidified incubator (5% CO2, 37°C). After that, cells were then loaded with 0.5 µM DAF-FM diacetate prepared in HBSS buffer for another 30 min. DAF-FM loading at this low concentration allows reducing the background fluorescence and improving the signal to noise ratio in a single cell ([34]). After incubation, the cells were washed twice with PBS, followed by 30 min. de-esterification of the intracellular diacetates in the dark at room temperature. Fluorescence signals (ex 488 nm, em 530± 30 nm) were monitored using a FACSCalibur™ flow cytometer. The median fluorescence intensity (MFI) of each sample was calculated using FlowJo software (Ashland, Oregon, USA). DAF-FM-DA has a detection limit of about 5 nM NO ([35]).
Figure 3 AITC stimulates NO production and exerts bactericidal activity in dependence of the TAS2R38 haplotype. PBMC were isolated from AVI/AVI or PAV/PAV genotype subjects and (A) exposed to 0.01% DMSO (SC), AITC, the NO-donor SNAP (positive control), or the NO scavenger cPTIO for the indicated time points. Then, 0.5 µM DAF-FM diacetate was added for 30 min. Fluorescence signals (ex 488 nm, em 530± 30 nm) were monitored using a FACSCalibur™. The median fluorescence intensity (MFI) of each sample was calculated using FlowJo software (Ashland, Oregon, USA). A representative histogram of one PAV/PAV subject is shown on the top, (B) incubated with E. coli K-12 at MOI 0.5 and exposed to 0.01% DMSO (SC) or AITC for 120 min at 37°C. Cell membrane potential depolarization was determined by staining bacteria with 1 µg/ml DiBAC4(3) for 10 min, in the dark at room temperature. Representative scattergrams of E. coli K-12 and PBMC treated with E. coli K-12 are given. An FSC/SSC plot was first made and E. coli K-12 cells gated. The population was copied to a SSC/DiBAC4(3)-scatterplot identifying the percentage of depolarized bacteria. Bars are mean value + SD, *p < 0.05, **p < 0.01. Significance of difference was calculated relative to the respective control by one-way ANOVA. […]

TRPA1 = TRPA1 overexpressing cells, read-out: EC50 for the activation of TRPA1, cited from earlier work
TNF-α = TNF-α secretion of PBMC (ELISA), LPS stimulated or unstimulated; format: cell-based, human
Description: as §2, §1

[2] = set-up: method as in PMID 26317351; conditions: rats, oral dosing; cited from earlier work

With C=CCN=C=S [AITC, allyl isothiocyanate] the “inhibition of TNF-alpha mRNA expression” value (TNF-alpha mRNA) was 50%, the “modulation of IL-2, IL-6, IL17-A and IL-10” value ([1]; CD3/CD28 mAbs stimulated PBMC) was “not clearly genotype dependent” and the “effect on TNF-α” value ([1]; CD3/CD28 mAbs stimulated cells, AVI/AVI group, 24h) was “No effect”. The TNF-α secretion ([1]; CD3/CD28 mAbs stimulated cells, PAV/PAV, 24h) was “Similar, but less strong effects”, the IL-1β ([1]; CD3/CD28 mAbs stimulated, PAV/PAV vs. AVI/AVI cells) was “differential inhibition” and the “activation of TAS2R38 taster variant among 25 TAS2Rs” value (TAS2R38-PAV receptor; HEK293T-Gα16gust44 cells transiently transfected) was “selectively triggered the taster variant”. The “activation of the TAS2R38-PAV receptor” value (TAS2R38-PAV receptor) was “activated”, the threshold concentration (TAS2R38-PAV receptor; heterologous expressed TAS2R38-PAV, in vitro) was […] and the “NO in monocyte cell population” value (NO production; AITC ≥ 10 µM, 1h, PAV/PAV (not AVI/AVI)) was “insignificant increase”. The “NO production in the lymphocyte population” value (NO production; PAV/PAV vs AVI/AVI, NO only detected after 5h at 100 µM AITC) was “no differential regulation”, the NO production increase (NO production; AVI/AVI, 100 µM AITC) was 41% and the NO production increase (NO production; PAV/PAV, 3 µM AITC) was 46%. The EC50 (TRPA1; ref 45) was […], the EC50 (TRPA1; ref 46) was […] and the TNF-α release (TNF-α; AITC exposure without inflammatory stimulus (data not shown)) was “no change”. The inhibition at 3 µM (TNF-α; Homo sapiens, 3 h LPS activated PBMC, 3 µM AITC, dependent on TAS2R38 receptor functionality, read-out: peak inhibition of TNF-α secretion) was 54%, the TNF-α secretion (TNF-α; LPS, prolonged incubation 24 h, PAV/PAV group, all tested concentrations) was “abolished the effect” and the “time to peak plasma level” value [2] was at most 0.5 h.

From article PMC8103899, “Allyl Isothiocyanate: A TAS2R38 Receptor-Dependent Immune Modulator at the Interface Between Personalized Medicine and Nutrition” (Frontiers in Immunology, 2021)
